Tests used:
CBX7 ChD = molecular target: T1, CBX7 ChD (Homo sapiens, UniProt O95931); assay type: binding; conditions: control ligands on 24 DNA constructs each, relative to nonligand
T1 sequence (O95931 11-69 limits assumed): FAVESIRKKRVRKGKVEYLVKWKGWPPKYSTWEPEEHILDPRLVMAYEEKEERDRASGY

CBX7 = conditions: cited from earlier work

Row | Substance | enrichment in model selection against CBX7 (in words) (CBX7 ChD) | selectivity to CBX7 over other CBX proteins and ChDs (CBX7) | Kd (CBX7; reported Kd for CBX7)
1 | Bz-A-I-Kme3-S-140-mers [low-affinity ligand] | poorly enriched | – | –
2 | Ac-F-A-I-Kme3-S-140-mers [medium-affinity ligand] | moderately enriched | – | –
3 | UNC3866 | – | 6- to 18 fold | 97 nM
